Measurements as given in patent publication US20240409530A1, “Disubstituted Pyrimidine Compounds for Ketohexokinase Inhibition” (Centennial Therapeutics, LLC, priority 2023, published 2024).
pIC50: −log10 of the molar value.

Key:
[1] = target: Human recombinant KHK-A (Homo sapiens (Human), UniProt P50053); experiment: KHK inhibition assay, recombinant isozyme (coupled pyruvate kinase/LDH, NADH absorbance 340 nm); type: biochemical; settings: recombinant isozyme 6 nM, fructose 2 mM, ATP 0.1 mM
Method: (§1) Determination of Human and Rat recombinant KHK-A and KHK-C isozyme IC50 Values
(§2) An assay reagent cocktail was prepared by combining NADH, water, TEA, KCl, MgCl2, PEP, ATP, DTT, coupling enzymes (pyruvate kinase and lactate dehydrogenase, LDH) to final concentrations as shown in Table B.
(§3) To this was added the relevant KHK isozyme to a final concentration of 6 nM. Aliquots of each inhibitor compound were diluted via 5-fold serial dilutions to produce final concentrations ranging from 1000 nM to 0.064 nM. The inhibitor aliquots were added to the assay reagent cocktail containing KHK with fructose (at a concentration of 2 mM) in a 96-well plate. The absorbance at 340 nm was measured via spectrophotometry and inhibition was analyzed using non-linear regression.

[2] = target: Human recombinant KHK-C (Homo sapiens (Human), UniProt P50053); experiment: as above; type: biochemical; settings: recombinant isozyme 6 nM, fructose 2 mM, ATP 0.1 mM
Method: as §1, §2, §3

[3] = target: Rat recombinant KHK-A (Rattus norvegicus (Rat), UniProt Q02974); experiment: as above; type: biochemical; settings: recombinant isozyme 6 nM, fructose 2 mM, ATP 0.1 mM
Method: as §1, §2, §3

[4] = target: Rat recombinant KHK-C (Rattus norvegicus (Rat), UniProt Q02974); experiment: as above; type: biochemical; settings: recombinant isozyme 6 nM, fructose 2 mM, ATP 0.1 mM
Method: as §1, §2, §3

[5] = target: human KHK in HepG2 Cells (Homo sapiens (Human), UniProt P50053); experiment: Cell-based potency assay (HepG2 assay), F1P by LC/MS; settings: fructose 20 mM, 20 min, F1P produced
Method: Testing inhibition effect of compounds against human KHK in HepG2 Cells
(§4) HepG2 cells were grown in RPMI1640 supplemented media on 100 mm plates to near confluency (about 5-8×10^6 cells). The growth media was aspirated and 4 mL trypsin solution (0.25% (w/v)+0.25% (w/v) EDTA) was added, followed by incubation at 37° C. for 5-10 mins. The cells were pelleted and resuspended in 2 mL complete media.
The cells were then placed in a 96 well plate at 20,000-50,000 cells per well and grown for 20-28 hours at 37° C. to allow adherence.
Inhibitor compounds were diluted in DMSO to 50 μM, then serially diluted with MEM media (ThermoFisher). Final inhibitor concentration ranged from 1000 nM to 0.064 nM (5-fold dilution series).
The RPMI medium was removed from the plate of confluent cells. The plate was then incubated for 35 min at 37°, after which were added 0.1 mL of the diluted inhibitor compounds in MEM with fructose, 0.1 mL of MEM media without inhibitor compound or fructose, or trypsin; yielding a final concentration of fructose at 20 mM. The plate was subsequently incubated for 20 min at 37°, then placed on ice to stop the reactions.
Next, 200 μL of cold 80% (v/v) methanol:water was added to all wells, except the controls used to enumerate cell count. The plate was vortexed and cell debris removed by centrifugation. To measure F1P produced, the resulting supernatant fraction was analyzed by LC/MS.

[6] = target: human KHK-C in engineered HepG2 cells (Homo sapiens (Human), UniProt P50053); experiment: Cell-based potency assay (KHK-C-overexpressing HepG2 assay), F1P by LC/MS; settings: fructose 30 mM, 5 min, F1P produced, geomean
Method: Testing inhibition effect of compounds against human KHK-C in engineered HepG2 cells.
Engineered HepG2 cells were generated using methods known to those of skill in the art. Briefly, HepG2 cells were incubated with lentivirus carrying a transgene encoding human KHK-C, and grown under antibiotic selection.
as §4, with “KHK-C-overexpressing HepG2” for “HepG2”, “T-182 cm^2 flask” for “100 mm plates”, “25-40×10^6” for “5-8×10^6”, “aspirated, the flask was washed with 10 mL PBS,” for “aspirated”, “3-5” for “5-10”
The cells were then placed in a 96-well plate at 20,000-40,000 cells per well and grown for 20-28 hours at 37° C. to allow adherence.
Inhibitor compounds were diluted in DMSO to 50 μM, then serially diluted with MEM media (ThermoFisher). Final inhibitor concentration ranged from 5000 nM to 0.32 nM.
The RPMI medium was removed from the plate of confluent cells. The plate was then incubated for 35 min at 37° C. with 0.1 mL of the diluted inhibitor compounds in MEM. After, an additional 0.1 mL of the diluted inhibitor compounds in MEM with fructose, or 0.1 mL of MEM media without inhibitor compound and/or fructose; yielding a final concentration of fructose at 30 mM was added. The plate was subsequently incubated for 5 min at 37° C., then placed on ice to stop the reactions.
Next 200 μL of cold 80% (v/v) methanol:water was added to al wells and placed in the −80° C. freezer for 1 hour with an adhesive seal. The plate was vortexed and cell debris removed by centrifugation. To measure F1P produced, the resulting supernatant fraction was analyzed by LC/MS.

Sequence of Rat recombinant KHK-A (Q02974 other isoform, or with tags, fused parts or gaps): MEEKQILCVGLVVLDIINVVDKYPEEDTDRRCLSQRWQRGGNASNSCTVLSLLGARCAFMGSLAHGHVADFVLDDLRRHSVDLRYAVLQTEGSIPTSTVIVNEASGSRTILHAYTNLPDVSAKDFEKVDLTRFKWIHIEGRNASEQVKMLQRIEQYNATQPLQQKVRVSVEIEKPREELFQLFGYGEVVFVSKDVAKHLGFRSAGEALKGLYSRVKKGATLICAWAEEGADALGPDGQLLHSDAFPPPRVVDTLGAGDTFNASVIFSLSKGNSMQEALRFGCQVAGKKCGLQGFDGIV
Sequence of Human recombinant KHK-C (P50053 whole entry): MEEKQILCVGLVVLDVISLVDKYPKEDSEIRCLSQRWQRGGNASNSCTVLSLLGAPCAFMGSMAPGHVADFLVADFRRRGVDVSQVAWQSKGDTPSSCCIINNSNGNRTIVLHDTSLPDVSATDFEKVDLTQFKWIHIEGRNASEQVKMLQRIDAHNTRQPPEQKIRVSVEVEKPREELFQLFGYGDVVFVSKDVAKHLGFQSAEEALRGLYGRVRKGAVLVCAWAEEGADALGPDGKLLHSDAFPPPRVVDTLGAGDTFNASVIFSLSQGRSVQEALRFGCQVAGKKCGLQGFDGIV
Sequence of human KHK in HepG2 Cells (P50053 whole entry): as above
Sequence of human KHK-C in engineered HepG2 cells (P50053 whole entry, stated change not applied): as the sequence (P50053 whole entry) above
Sequence of Human recombinant KHK-A (P50053 other isoform, or with tags, fused parts or gaps): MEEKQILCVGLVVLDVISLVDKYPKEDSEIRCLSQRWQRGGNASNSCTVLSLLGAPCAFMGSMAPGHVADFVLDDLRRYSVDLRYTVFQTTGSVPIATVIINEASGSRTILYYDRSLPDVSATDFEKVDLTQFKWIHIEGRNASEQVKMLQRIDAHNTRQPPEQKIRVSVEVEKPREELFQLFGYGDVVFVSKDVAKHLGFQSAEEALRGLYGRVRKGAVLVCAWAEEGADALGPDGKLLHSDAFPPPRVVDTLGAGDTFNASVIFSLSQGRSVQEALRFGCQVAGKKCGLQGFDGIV
Sequence of Rat recombinant KHK-C (Q02974 whole entry): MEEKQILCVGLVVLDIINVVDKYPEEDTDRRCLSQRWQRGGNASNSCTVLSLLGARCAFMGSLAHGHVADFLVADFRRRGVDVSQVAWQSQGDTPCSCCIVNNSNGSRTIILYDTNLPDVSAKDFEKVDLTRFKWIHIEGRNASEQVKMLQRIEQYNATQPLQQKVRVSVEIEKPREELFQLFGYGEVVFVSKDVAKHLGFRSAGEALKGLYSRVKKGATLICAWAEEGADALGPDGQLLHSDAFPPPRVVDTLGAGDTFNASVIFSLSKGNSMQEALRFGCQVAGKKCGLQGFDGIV

pIC50 [1] | pIC50 [2] | pIC50 [3] | pIC50 [4] | pIC50 [5] | pIC50 [6] | SMILES
8.39 | 8.98 | 8.89 | 8.48 | 9.00 | 7.47 | Cc1c(-c2cnn(C3CN(C)C3)c2)nc(N2C[C@@H](O)[C@@H]2C)nc1C(F)(F)F [Compound A12, (2S,3R)-2-methyl-1-{5-methyl-4-[1-(1-methyl-3-azetidinyl)-4-pyrazolyl]-6-(trifluoromethyl)-2-pyrimidinyl}-3-azetidinol]
8.69 | 8.82 | 8.84 | 8.48 | 8.70 | 7.44 | Cc1c(-c2cnn(C3CN(C)C3)c2)nc(N2C[C@@H](O)[C@@H]2C)nc1C(F)F [Compound A21, (2S,3R)-1-{6-(difluoromethyl)-5-methyl-4-[1-(1-methyl-3-azetidinyl)-4-pyrazolyl]-2-pyrimidinyl}-2-methyl-3-azetidinol]
8.72 | 8.31 | 8.39 | 8.11 | 8.05 | 7.09 | Cc1c(-c2cnn(C3CNC3)c2)nc(N2C[C@@H](O)[C@@H]2C)nc1C(F)F [Compound A35, (2S,3R)-1-{4-[1-(3-azetidinyl)-4-pyrazolyl]-6-(difluoromethyl)-5-methyl-2-pyrimidinyl}-2-methyl-3-azetidinol]
